From US20240300979A1, “SN-38 DERIVATIVE, NANO-PARTICLES CONTAINING SAID DERIVATIVE, MEDICINE, AND METHOD FOR PRODUCING SAID NANO-PARTICLES” (JAPAN SCIENCE AND TECHNOLOGY AGENCY, priority 2021, published 2024)

Experiments:
[1] = tested on: human mammary epithelial cell line HMEC; test: In vitro activity test, Test Example 4, normal cell; format: cell-based
Procedure: (§1) Human liver cancer cell line HePG2 or human breast cancer cell line KPL-4 was seeded in a 96-well plate at 2×10^4 cells/well. On the next day, irinotecan and each SN-38 derivative (compound A ((SN-38×C6 dimer (S—S, ester)), compound B (SN-38×C6 dimer (S—S, carbonate))) nanoparticle dispersion were added to the HepG2 cell culture medium to 0.04 to 10 μM. Then, the cells were cultured for 48 hours, and the cell viability was measured by a colorimetric method using the Cell Counting Kit-8 (produced by Dojindo Laboratories) and a microplate reader.
(§2) As in Test Example 1, human colon cancer cell line HCT-116 or human mammary epithelial cell line HMEC was seeded in a 96-well plate at 2×10^4 cells/well. On the next day, SN-38 and the SN-38 derivative (SNC4DC) nanoparticle dispersion were added to the cell culture medium to 0.04 to 10 μM. Then, the cells were cultured for 48 hours, and the cell viability was measured by a colorimetric method using the Cell Counting Kit-8 (produced by Dojindo Laboratories) and a microplate reader.

[2] = tested on: human colon cancer cell line HCT-116; test: In vitro activity test, Test Example 4, cancer cell; format: cell-based; conditions: HCT-116 (Cancer cell), 48 hours, read-out: cell viability IC50
Procedure: as §1, §2

[3] = Drug release triggered by the S-S bond on addition of dithiothreitol and glutathione; format: physicochemical; conditions: dithiothreitol and glutathione (reduced form) added to the nano-prodrug
Excerpt: (§3) Then, nanoparticles were produced. […] The present invention is based on these new findings. Therefore, the present invention provides the following items: […]

[4] = tested on: Human liver cancer cell line HePG2 or human breast cancer cell line KPL-4; test: In vitro activity test, Test Example 1 (cell viability, Cell Counting Kit-8); format: cell-based; conditions: nanoparticle dispersion, 0.04 to 10 μM, 48 hours
Procedure: as §1

[5] = Nanoparticle aqueous dispersion, particle size and aggregation by SEM and DLS; format: physicochemical; conditions: 0.1 mM aqueous dispersion of nanoparticles
Procedure: 100 μL of THF solution of compound A or B prepared to 10 mM was injected into 10 mL of water using a syringe at room temperature, followed by stirring for 2 seconds at 1500 rpm, thereby obtaining an aqueous dispersion of nanoparticles. The concentration of the final aqueous dispersion was 0.1 mM.
100 μL of DMSO or THF solution of each compound prepared to 10 mM was injected into 10 mL of water using a syringe at room temperature, followed by stirring for 2 seconds at 1500 rpm, thereby obtaining an aqueous dispersion of nanoparticles. The concentration of the final aqueous dispersion was 0.1 mM.

[6] = Dispersion stability of the nano-prodrug; format: physicochemical
Excerpt: as §3

Row | Structure (SMILES) | toxicity to normal cells ([1]; HMEC, in words from Table 4) | IC50 ([1]; Homo sapiens, HMEC (Normal cell), 48 hours, read-out: cell viability IC50) | IC50 [2] | cleavage of the S-S bond [3] | formation of C6 acyloxy-substituted SN-38 derivative (drug release) [3] | pharmacological activity (cell viability, FIG. 1) [4] | particle size [5] | dispersion stability [6]
1 | CCc1c2c(nc3ccc(O)cc13)-c1cc3c(c(=O)n1C2)COC(=O)[C@]3(O)CC [SN-38] | highly toxic to normal cells | 550 nM | 40 nM |  |  |  |  | 
2 | CCCCCC(=O)Oc1ccc2nc3c(c(CC)c2c1)Cn1c-3cc2c(c1=O)COC(=O)[C@@]2(CC)OC(=O)CCCSSCCCC(=O)O[C@]1(CC)C(=O)OCc2c1cc1n(c2=O)Cc2c-1nc1ccc(OC(=O)CCCCC)cc1c2CC [compound A] |  |  |  | the cleavage of the S—S bond proceeded somewhat | not confirmed | did not exhibited good pharmacological activity | about 100 nm | ≥ 7 days
